Laboratory results reported in patent US20250057813A1, “APOPTOSIS RELATED PROTEIN IN THE TGF-BETA SIGNALING PATHWAY (ARTS) MIMETIC COMPOUNDS, COMPOSITIONS, METHODS AND USES THEREOF IN INDUCTION OF APOPTOSIS” (Carmel-Haifa University Economic Corporation Ltd., priority 2022, published 2025).
“Also recorded” adds a separate entry of the source.

Key:
[1] = system: PBMC; assay: Viability assay (SRB), normal cell control; assay type: cell-based, Human; conditions: 72 hrs, 10 mM to 0.1 μM
Experimental: The assay was performed at six tenfold serial dilutions of the B3 compounds: 10 mM (stock), 1 mM, 100 μM, 10 μM, 1 μM and 0.1 μM. The screen was performed on 93 cancer cell lines and PBMC as normal cell control. The B3 compound was incubated with the cells for 72 hours. The following cancer cell lines were screened:
The Sulforhodamine B (SRB) assay was used as a screening method. Briefly, the method relies on the property of SRB, to bind stoichiometrically to proteins under mild acidic conditions and to be extracted under basic conditions. Thus, the amount of bound dye can be used as a proxy for cell mass, which can then be extrapolated to measure cell proliferation. The protocol can be divided into four main steps: preparation of treatment, incubation of cells with treatment of choice, cell fixation and SRB staining and absorbance measurement.

[2] = system: MG-63 osteosarcoma cell line; assay: Dose response of cell death with B3 relative to DMSO; assay type: cell-based; conditions: increasing doses of B3
[3] = system: HeLa cells; assay: Western blot of HeLa cells exposed to B3; assay type: cell-based; conditions: 30 μM, 2-24 hrs
Experimental: (§1) The cells were lysed in WCE (whole-cell extract) buffer [25 mM Hepes, pH 7.7, 0.3M NaCl, 1.5 mM MgCl2, 0.2 mM EDTA, 0.1% Triton X-100, 100[μg/ml PMSF and protease inhibitor cocktail (Roche, 1:100 dilution)]. 100 μg of total cell protein, measured with the Bio-Rad Protein Assay kit, were separated by SDS-PAGE (12%) followed by transfer for 2 h on to a nitrocellulose membrane. The membrane was blocked with 5% (w/v) non-fat dried skimmed milk powder in PBS supplemented with 0.05% Tween20 (PBS-T) for 1 hour at room temperature (R.T). Membrane was then probed with primary antibody at 4° C. overnight. Next, the membrane was incubated with the appropriate HRP-conjugated secondary antibody, for 1 hour at R.T. and washed 15 min ×3 with PBS-T. WesternBright ECL (Advansta) was added to the membrane for 2 min and analyzed using ImageQuant LAS-4000 analyzer (GE Healthcare Life Sciences) & “ImageQuant LAS-4000” software (GE Healthcare Life Sciences). Densitometry analysis was performed using ImageQuant total lab 7 (GE Healthcare Life Sciences), image analysis software.

[4] = target: T1, complex formation between XIAP and Bcl-2 (Homo sapiens, UniProt P10415+P98170); assay: Co-immunoprecipitation in HCT 116 XIAP KO cells transfected with GFP-XIAP and Flag-Bcl-2; assay type: cell-based; conditions: 20 uM B3
T1 construct: expressed in transfected cells; host or cells: HCT 116 XIAP KO cells
T1 sequence (P98170 whole entry): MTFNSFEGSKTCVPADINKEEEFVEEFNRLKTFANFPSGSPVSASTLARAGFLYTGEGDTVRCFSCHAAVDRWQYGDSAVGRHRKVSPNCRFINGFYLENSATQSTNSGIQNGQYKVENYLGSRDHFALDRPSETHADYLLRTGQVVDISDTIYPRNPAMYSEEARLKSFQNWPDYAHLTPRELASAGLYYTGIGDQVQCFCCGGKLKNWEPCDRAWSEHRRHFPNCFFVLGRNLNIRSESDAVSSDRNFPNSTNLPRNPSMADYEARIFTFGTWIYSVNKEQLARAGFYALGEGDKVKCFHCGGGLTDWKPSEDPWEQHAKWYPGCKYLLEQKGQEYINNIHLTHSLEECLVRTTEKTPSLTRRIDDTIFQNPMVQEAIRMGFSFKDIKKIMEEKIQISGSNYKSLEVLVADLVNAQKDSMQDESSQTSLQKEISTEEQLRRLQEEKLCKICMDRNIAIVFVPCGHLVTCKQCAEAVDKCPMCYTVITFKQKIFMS
T1 sequence (P10415 whole entry): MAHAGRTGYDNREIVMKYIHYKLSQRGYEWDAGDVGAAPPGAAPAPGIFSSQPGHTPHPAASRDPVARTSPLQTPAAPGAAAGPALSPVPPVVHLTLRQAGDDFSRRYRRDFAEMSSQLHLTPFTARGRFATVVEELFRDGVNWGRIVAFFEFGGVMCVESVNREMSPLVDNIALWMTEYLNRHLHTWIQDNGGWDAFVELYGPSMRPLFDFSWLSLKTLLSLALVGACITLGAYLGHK
Experimental: Protein extracts were prepared with lysis buffer containing 150 mM NaCl, 50 mM Tris-HCl (pH 8), 1% NP-40, 0.5% deoxycholate acid with protease inhibitors (mini complete, Roche). Protein levels were determined and equal amounts were used for each sample. Lysates were pre-cleared with […] mouse IgG (Sigma) coupled with protein A/G sepharose mix (Amersham Biosciences). Complexes were incubated overnight at 4° C., followed by low-speed centrifugation. Supernatants were immunoprecipitated using […] of monoclonal anti-Bcl-2 antibodies (BD) overnight. Protein A/G sepharose beads were added to immunoprecipitate complex for 4 hours, collected and washed four times with PBS and then responded and heated in Sample buffer ×2 for 10 minutes.

[5] = target: T2, binding of XIAP to Bcl-2 (Homo sapiens, UniProt P10415+P98170); assay: BiFC assay in A375 melanoma cells (Bcl-2-VC and XIAP-VN); assay type: cell-based; conditions: 20 μM B3, 24 h
T2 construct: expressed in transfected cells; host or cells: A375 melanoma cells
T2 sequence (P98170 whole entry): as the sequence (P98170 whole entry) above
T2 sequence (P10415 whole entry): as the sequence (P10415 whole entry) above
Description: The split-Venus BiFC system was used to evaluate close proximity indicating possible direct binding between pairs of proteins. The proteins were fused either to the N-terminal part of the Venus-YFP (yellow fluorescence protein) (VN) or the C-terminal part (VC). All Venus fragments were fused to the C-terminal sequences of these proteins. The Jun and Fos pair was used as a positive control (P.C.), and the Jun and FosdeltaZIP pair was used as a negative control (N.C.). A vector encoding dsRed was used as a transfection efficiency marker. Cells were seeded in 12 well plates overnight. Cells were then transfected with (Bcl-2-VC, ARTS-VN, XIAP-VN and XIAP-VC) for 24-36 hours. Cells were then treated with apoptotic inducing reagents for 24 hrs.

[6] = system: WT MEFs and Sept4/ARTS KO MEFs cells; assay: Western blot of WT MEFs and Sept4/ARTS KO MEFs; assay type: cell-based, mouse; conditions: 20 or 40 μM, 24 hours
Experimental: (§2) Cells were lysed in whole-cell extract buffer [25 mM HEPES, pH 7.7, […], 1.5 mM MgCl2, 0.2 mM EDTA, 0.1% Triton X-100, 100 μg/ml phenylmethylsulfonyl fluoride (PMSF) and protease inhibitor cocktail (Roche, 1:100 dilution)] and placed on ice for 30 min (vortexing once after 15 min). After 30 minutes, the samples were centrifuged at 13,000×g for 10 minutes at 4° C. The supernatants containing total protein were measured for protein concentration using Bio-Rad Protein Assay Dye Reagent Concentrate Kit. 40 to […] was separated by sodium dodecyl sulfate-polyacrylamide gel electrophoresis (SDS-PAGE) (12% or 7.5%), followed by transfer to a nitrocellulose membrane. The membranes were blocked with 5% (w/v) non-fat dried skimmed milk powder in PBS supplemented with 0.05% Tween-20 (PBS-T) for 1 h at RT. Next, primary antibodies were added at 4° C. overnight or for 2 h at room temperature. Membranes were then incubated with secondary antibody for 1 h at RT and washed three times for 15 min each with PBS-T. Western Bright ECL (Advansta) was added to the membrane for 30-60 s and analyzed using Image Quant LAS-4000 (GE Healthcare Life Sciences) and Image Quant LAS-4000 software (GE Healthcare Life Sciences).

[7] = system: HCT116 WT cells; assay: Western blot analysis of HCT116 WT cells; assay type: cell-based
Experimental: as §2

[8] = target: T3, binding between XIAP and p53 (Homo sapiens, UniProt P98170); assay: BiFC assay in WT MEFs (VN-p53 and VC-XIAP); assay type: cell-based; conditions: 20 μM B3 for 18 hours
T3 construct: expressed in transfected cells; host or cells: WT MEFs
T3 sequence (P98170 whole entry): as the sequence (P98170 whole entry) above
Description: The split-Venus BiFC system was used to evaluate close proximity indicating possible direct binding between pairs of proteins. The proteins were fused either to the N-terminal part of the VenusYFP (yellow fluorescence protein) (VN) or the C-terminal domain (VC). All Venus fragments were fused to the C-terminal sequences of these proteins. The Jun and bFos pair was used as a positive control (p.c.), and the Jun and bFosdeltaZTP pair was used as a negative control (n.c.). A vector encoding dsRed was used as a transfection efficiency marker.

[9] = system: SKMEL-5, A-375, UACC257, Hela wt, Mefs; assay: Western blot, B3 apoptotic effect on different cell lines; assay type: cell-based; conditions: 20 μM, 24 h
Experimental: as §1

With Cn1ccnc1C(=O)c1ccc(NC(=O)C(=O)N[C@H](CO)Cc2ccccc2)cc1 [B3, (S)-N1-(1-hydroxy-3-phenylpropan-2-yl)-N2-(4-(1-methyl-1H-imidazole-2-carbonyl)phenyl)oxalamide] the “sensitivity of normal cell control to B3” value [1] was “resistant”, the cell death [2] was “dose-dependent death” and the anti-apoptotic markers [3] was “reduction”. For the same molecule, the “complex formation between XIAP and Bcl-2” value [4] was “significantly increase”, the “binding of XIAP to Bcl-2” value [5] was “slightly increased; also recorded: increased” and the XIAP levels [6] was “downregulates”. The p53 levels [6] was “upregulate”, the XIAP levels ([7]; 20 uM, 24 hrs) was “decrease” and the “cleavage of early apoptotic marker Caspase 9” value ([7]; 20 uM, 24 hrs) was “increase”. The MDM2 levels ([7]; 10, 20, 30 μM B3, 24 hours) was “reduction”, the XIAP levels ([7]; 10, 20, 30 μM B3, 24 hours) was “reduction” and the “cPARP or caspase3” value ([7]; 10, 20, 30 μM B3, 24 hours) was “elevation”. For the same molecule, the p53 levels ([7]; 10, 20, 30 μM B3, 24 hours) was “elevation”, the “binding between VN-p53 and VC-XIAP” value [8] was “disrupted” and the “cleavage of apoptotic markers Caspase3 and PARP” value [9] was “induced cleavage”.
